The record followed here is ChEMBL document CHEMBL3301361, “Experimental in vitro DMPK and physicochemical data on a set of publicly disclosed compounds”.

A short description of this series: physchem. To be noted: octan-1-ol/water, pH 7.4, LogD7.4.

The logD is lipophilicity at a set pH, counting ionised and neutral species. Higher therefore signals higher lipophilicity.

`O=S(=O)(Cc1cc(Cl)cc(Cl)c1)NCC(c1ccccc1)N1CCCCCC1` (configuration not stated) displayed a logD of 3.23.
The same measure for `O=S(=O)(NCC(c1ccccc1)N1CCCCCC1)c1ccc(Br)cc1` (configuration not stated): 3.21; for `Cc1cc2n[nH]c(=O)n2c2cc(-c3ccc[nH]3)ccc12`: 3.29.
Take `Cc1cc(Cl)ccc1N1CCN(C(=O)COCc2ccncc2)CC1`: the logD is 3.22.
The same measure for `Nc1cccc(C(=O)NCC23CC4CC(CC(C4)C2)C3)c1Cl`: 3.29; for `O=C(O)c1ccc2cccc(O)c2n1`: 3.3; for `Fc1cccc(C(COCc2cc(C(F)(F)F)cc(C(F)(F)F)c2)N2CCNCC2)c1` (configuration not stated): 3.2.
In turn, `c1ccc(-c2ccc(COc3ccc4c(c3)CCC(CCN3CCCCC3)C4)cc2)cc1` (configuration not stated) showed a logD of 3.3.
The same measure for `O=c1c2cnn(-c3ccccc3)c2nc(-c2ccco2)n1-c1ccccc1`: 3.29; for `O=C(Nc1ccc(F)cc1)c1cccnc1Oc1ccccc1`: 3.19.
Next, `O=C(CSc1ccccc1)N1CCN(c2ccccc2)CC1`: 3.2; `COc1cc2c(Nc3ccc(Cl)cc3F)ncnc2cc1OCCn1cncn1`: 3.2; `Cc1cc(C)c2c(n1)sc1c(N3CCN(C)CC3)ncnc12`: 3.2.
Next, `Nc1cccc2c1C(=O)N(Cc1cccc(Cl)c1)C2=O`: 3.18; `Oc1nc2ccccc2nc1NCc1ccccc1`: 3.3.
Regarding `O=C(NCc1ccncc1)c1ccc(Oc2ccccc2)cc1`, the logD amounted to 3.26.
The same measure for `Cc1cc(NC(=O)c2ccc(Cl)cc2)n(-c2ccccc2)n1`: 3.25.
The same measure for `COCCN1CCN(CC(=O)Nc2ccc(-c3cccn4c(=O)cc(N5CCOCC5)nc34)c3sc4ccccc4c23)CC1`: 3.2; for `O=C1CCOc2nc(/C=C/c3ccccc3)ccc21`: 3.2; for `CC[C@H](NC(=O)c1c([S+](C)[O-])c(-c2ccccc2)nc2ccccc12)c1ccccc1` (some centres not stated): 3.17.
The same measure for `CC[C@H](NC(=O)c1c(S(C)(=O)=O)c(-c2ccccc2)nc2ccccc12)c1ccccc1`: 3.17; for `CC[C@H](NC(=O)c1c(CS(C)(=O)=O)c(-c2ccccc2)nc2ccccc12)c1ccccc1`: 3.25; for `CC[C@H](NC(=O)c1c([S+](C)[O-])c(-c2ccccc2)nc2cc(Br)ccc12)c1ccccc1` (some centres not stated): 3.18.
`Oc1ccc(-c2cnc3ccccc3n2)cc1` returned a logD of 3.3.
Next, `COc1cc(F)ccc1-c1cncc(CNC(=O)C2CCC2)c1`: 3.2.
The same measure for `C[C@H]1CCCN1CCc1cc2cc(-c3ccc(C#N)cc3)ccc2o1`: 3.25.
Next, `COc1cc(N2CCN(C(N)=O)CC2)ccc1Nc1ncc(Cl)c(-c2cnc3ccccn23)n1`: 3.3.
In the case of `COc1cc(N2CCN(C(C)=O)CC2)ccc1Nc1ncc(Cl)c(-c2cnc3c(C)cccn23)n1`, the logD came to 3.2.
For the molecule `COc1cc(N2CCN(C(C)=O)CC2)ccc1Nc1ncc(Cl)c(-c2cnc3c(F)cc(F)cn23)n1`, the logD came out at 3.2.
Regarding `CN(C(=O)Cc1ccc(O)cc1)C1CCN(CCC(c2ccccc2)c2ccccc2)CC1`, the logD is 3.3.
With `Oc1ccc(-c2nc3ccc(O)cc3o2)cc1`, the logD stood at 3.3.
The molecule `N[C@H](CNC(=O)c1cc2c(-c3ccccc3Cc3ccccc3)cccc2[nH]1)C(=O)O` gave a logD of 3.25.
The same measure for `Cc1c(Sc2ccc(Cl)cc2)c2cc(Cl)ccc2n1Cc1nnn[nH]1`: 3.25.
Next, `COC(=O)c1ccc(NC(=O)c2cc(OC)c(OC)c(OC)c2)cc1`: 3.2; `Nc1cc2n[nH]c(=O)n2c2cc(-c3cccs3)ccc12`: 3.26.
Next, `Nc1cc2n[nH]c(=O)n2c2cc(-c3ccsc3)ccc12`: 3.18; `O=c1c(-c2ccc([N+](=O)[O-])cc2)coc2cc(O)cc(O)c12`: 3.24; `Cc1cnc(-c2ccc(C)c(NC(=O)c3ccc(OCc4ccccn4)cc3)c2)[nH]1`: 3.19.
With `CC(C)(C)OC(=O)N1CCN(c2ncc(OCc3ccc(S(C)(=O)=O)cc3)cn2)CC1`, the logD was found to be 3.27.
`COc1ccc(Oc2cccc(CN3CCCC(n4cc(C)c(=O)[nH]c4=O)C3)c2)cc1` (configuration not stated) came in with a logD of 3.17.
As for `O=C(N[C@H]1Cc2ccccc2N(C[C@@H](O)CO)C1=O)c1cc2cc(Cl)sc2[nH]1`, the logD was 3.3.
Regarding `C[C@@H](NC(=O)C1(N)CCN(c2ncnc3[nH]ccc23)CC1)c1ccc(Cl)cc1`, the logD turned out to be 3.3.
The same measure for `Nc1nc2cc3c(cc2s1)CCN(Cc1cccc(F)c1)CC3`: 3.3.
Next, `CCCN(CCC)C(=O)c1cccc(C(=O)N[C@@H](Cc2ccccc2)[C@H](O)CNC2Cc3ccccc3C2)c1`: 3.3.
For the molecule `CC(=O)N[C@@H](C)c1ccc(Nc2ncc3cc(-c4ccncc4)ccc3n2)cc1`, the logD worked out at 3.17.
The same measure for `COCCC(=O)N(C)c1ccc(Nc2ncc3cc(-c4ccncc4)ccc3n2)cc1`: 3.23; for `CC(=O)N[C@H](C)c1ccc(Nc2ncc3cc(-c4ccncc4)ccc3n2)cc1`: 3.18.
The same measure for `C[C@@H](NC1=CC(=O)CCC1)c1ccc(Nc2ncc3cc(-c4ccncc4)ccc3n2)cc1`: 3.17; for `N#C/C(=C(/N)Sc1ccc(N)cc1)c1ccccc1C(F)(F)F`: 3.3.
Next, `CCCCCC[C@H]1OC(=O)CNC(=O)[C@@H]([C@H](C)O)NC(=O)[C@H](CO)NC(=O)[C@H]([C@H](C)CC)NC(=O)[C@H](CC(C)C)N(C)C(=O)[C@@H]1C`: 3.2.
`C[C@H](NC(=O)/C=C/c1ccccc1)c1cccc(N2CCOCC2)c1` yielded a logD of 3.24.
Molecule `C#CCN(c1ccnc(Nc2ccc(OCC(O)CN(C)C)cc2)n1)c1cc(Cl)ccc1Cl` (configuration not stated) gave a logD of 3.2.
`COc1cc(N2CCN(C)CC2)c2nc(C(=O)Nc3ccc(N4CCOCC4)cc3)cc(N(C)C)c2c1` had a logD of 3.3.
The same measure for `O=C(N[C@@H]1Cc2ccccc2N(C[C@@H](O)CO)C1=O)c1cc2cc(Cl)sc2[nH]1`: 3.27; for `O=C(N[C@H]1Cc2ccccc2N(C[C@H](O)CO)C1=O)c1cc2cc(Cl)sc2[nH]1`: 3.27.
`CC(C)Cn1c(=O)n(C)c(=O)c2c(C(=O)N3CC(C)(O)C3)c(Cc3ccccc3C(F)(F)F)sc21` returned a logD of 3.18.
For `Cc1oc(S(C)(=O)=O)cc1-c1c2c(=O)n(C)c(=O)n(CC3CC3)c2nn1Cc1ccnc2ccc(Cl)cc12`, the logD amounted to 3.2.
`Nc1ncc(NC(=O)c2cc(NC(=O)c3cccc(C(F)(F)F)c3)ccc2Cl)cc1Cl`: the logD was found to be 3.26.
As to `O=c1cc(-c2ccc(O)cc2)oc2ccc(O)cc12`, the logD is 3.3.
On to `O=c1oc2ccccc2cc1-c1ccccc1`, for which the logD is 3.22.
Next, `O=C(COCc1ccccc1)Nc1ccc2c(c1)C(=O)C(=O)c1ccccc1-2`: 3.21; `Clc1ccc2[nH]ccc2c1`: 3.28.
For the molecule `Cc1cc(Oc2ccnc(Nc3cccc(N4CCOCC4)c3)c2)c(-c2ccccn2)nc1C`, the log distribution coefficient (logD) came out at 3.27.
Next, `Oc1ccc(CCc2ccc(O)cc2)cc1`: 3.3; `Cn1c(-c2ccccc2)cc2onc(-c3ccncc3)c2c1=O`: 3.17; `CSc1nc2cc(Cl)ccc2[nH]1`: 3.22.
In turn, `O=[N+]([O-])c1ccc2c(c1)N(c1cccc[n+]1[O-])CC(C(F)F)(C(F)F)O2` registered a logD of 3.2.
